# Source: paper PMC10076643, “Design, synthesis and anticancer activity studies of 3-(coumarin-3-yl)-acrolein derivatives: Evidenced by integrating network pharmacology and vitro assay” (Frontiers in Pharmacology, 2023)
# Key:
# [1] = tested on: Hela (human cervical carcinoma cell line); assay: MTT antiproliferative assay, Hela; type: cell-based; details: 72 h
# Excerpt: All the synthesized compounds were screened for in vitro antiproliferative activity against four human cancer cell lines A549 (human lung cancer cell line), KB (human oral epidermoid carcinoma cell line), Hela (human cervical carcinoma cell line), MCF-7 (human breast cancer cell line) and two human normal cell lines HUVEC (human umbilical vein endothelial cell) and LO2 (human normal hepatocytes) through the 3-(4,5-dimethyl-2-thiazolyl)-2,5-diphenyl-2-H-tetrazolium bromide (MTT) assay.
# Non-small-cell lung cancer (A549), oral epidermoid carcinoma (KB), cervical cancer (Hela) and breast cancer (MCF-7) cells were purchased from the American Type Culture Collection (ATCC, America). Human umbilical vein endothelial cell (HUVEC) and human normal hepatocytes (LO2) cells were provided by Guangzhou Medical University (Guangzhou, China). A549 and KB cells were cultured in RMPI-1640 medium (Gibco, America). Hela, MCF-7 and LO2 cells were cultured in DMEM medium (Gibco, America). HUVEC cells were cultured in Ham’s F-12K medium (Gibco, America). All the mediums were supplemented with 10% fetal bovine serum (FBS) (BI, State of Israel), 100 U/mL penicillin and 100 μg/mL streptomycin (Gibco, America), and all the cells were incubated in a sterile incubator at 37°C in an environment of 5% CO2. The tested compounds were dissolved in dimethyl sulfoxide (DMSO) at a concentration of 10 mM, and then diluted into different concentration of solutions by culture medium. The final concentration of DMSO was <0.01% (v/v) in all drug treatment groups to avoid the toxicity in the biological system. Untreated cells were used as a blank control and 5-fluorouracil treated cells were used as a positive control.
# The incubated tumor cells were planted into 96-well plates (4×10^3 cells/well). After 24 h, the cells were adherent to the wall and treated with the compound 6e in different concentrations (0.78, 1.56, 3.12, 6.25, 12.50, 25.00, and 50.00 μM) for 72 h. Afterwards, the medium was supplemented with 10 µL MTT solution. After 4 h, the culture medium was removed and 100 µL DMSO was added. The absorbance was determined at the wavelength of 540 nm and 655 nm using a microplate reader (BioTek Epoch, America). The results were collected from three independent experiments. The IC50 was then calculated by using GraphPad Prism Software (version 7.0) and non-linear regression (curve fit).
# KB cells = assay: JC-1 mitochondrial membrane potential (MMP) assay; type: cell-based, human; details: increasing concentration (0.5 IC50, IC50, 2 IC50), 48 h
# Excerpt: According to the predicted results of network pharmacology, compound 6e might stimulate the oxidative stress response of cancer cells. Oxidative stress reflects an imbalance between excessive production of reactive free radical and deficits in antioxidant biosystem ([Zhong et al., 2018]). Mitochondria are the main reactors that produce reactive free radicals in cells, and MMP is a key indicator of mitochondrial activity. Excessive oxidative stress can cause a decrease in MMP, which leads to the damage of mitochondrial. It is well-known that mitochondrial damage is a major trigger for the induction of cell apoptosis and necrosis ([Kharroubi et al., 2017]; [Meng et al., 2021]). Therefore, JC-1 staining was used to investigate the effect of compound 6e on the MMP (ΔΨm) of KB cells. In normal cells, JC-1 can form aggregates in healthy mitochondria, emitting red fluorescence, while in apoptotic cells, JC-1 will stay in monomers that emit green fluorescence, implying a low value of ΔΨm. Therefore, mitochondrial depolarization is manifested by a decrease in the ratio of red to green fluorescence intensity.
# MMP was determined using the JC-1 mitochondria staining Kit (Aladdin, China). […] On one hand, JC-1 red and green fluorescence intensities were measured with Varioskan™ LUX Multimode Microplate Reader (Thermo Fisher Scientific, America) under the […]. […]
# PI3K in KB cells = assay: Western blot, PI3K; type: cell-based, human; details: 0.40, 0.80, 1.60 μM, 24 h
# Excerpt: (§1) Based on the results of network pharmacology, the key proteins related to PI3K/AKT pathway were detected by Western blotting to explore the antitumor mechanism of compound 6e. […] Such an inconsistency might be due to a compensatory increase in PI3K level after the reduction of AKT phosphorylation level. Additionally, the active-caspase 3 protein, anti-apoptosis protein Bcl-2 and pro-apoptosis protein Bax were further analyzed. Caspase-3 normally exists in the cytoplasm as zymogen. During the early stage of apoptosis, caspase-3 (32 KD) is cleaved to the active 17-kD caspase-3 fragment, which is responsible for morphological and biochemical changes in apoptosis. Bcl-2 and Bax are the […] located on the mitochondrial membrane and capable of controlling the MMP (ΔΨm) and the activation of caspase cascade.
# (§2) A total of 4 × 10^5 KB cells were seeded into 6-well and grown for overnight. Then the cells adherent to the wall were treated with compound 6e in different concentrations (0, 0.40, 0.80, 1.60 μM) for 24 h. After that, cells were collected, SDS lysate, 100X protease inhibitor and 50X phosphorylation inhibitor were added in a certain proportion to lyse the cells. The protein content was determined by BCA reagent (Beyotime, China) according to the standard curve. […]
# caspase-3 in KB cells = assay: Western blot, caspase-3; type: cell-based, human; details: 24 h
# Excerpt: as §1, §2
# Bax in KB cells = assay: Western blot, Bax; type: cell-based, human; details: 0.40 μM, 24 h
# Excerpt: as §1, §2
smiles,measurement,setting,value
"O=CC=C(Cl)c1cc2ccc(OCc3ccccc3)cc2oc1=O [Compound 6e, 3-(7-(Benzyloxy)-2-oxo-2H-chromen-3-yl)-3-chloroacrylaldehyde]",IC50,[1],1820 ± 220 nM
same,JC-1 ratio (red to green fluorescence),KB cells,significant decrease
same,relative PI3K level among the control and treatment groups,PI3K in KB cells,not significantly different
same,ratio of cleaved caspase-3 to caspase-3,caspase-3 in KB cells; 0.80 μM,increased
same,expression of the cleaved 17-kD caspase-3,caspase-3 in KB cells; 1.60 μM,upregulated
same,expression of Bax compared with the control group,Bax in KB cells,upregulated
